The assay deals with hCB2 receptor (Homo sapiens, UniProt P34972). The experiment in a line: Single-dose radioligand displacement assay ([3H]WIN55212-2). The note with it: membranes from recombinant CHO cells expressing human CB2, duplicate; for inhibition at 10 µM: read-out: Inhibition (%) of [3H]WIN55212-2 specific binding, 10 µM single dose; for Inhibition (%) of [3H]WIN55212-2 specific binding: 10 µM single dose. It counts as binding. On the set-up: host or cells: CHO cells. As for the experimental part:
To assess ligand binding to CB2 receptors, radioligand displacement assay at a single dose (10 μM) was performed in membranes obtained from recombinant CHO cells expressing human CB2 receptors (Eurofins Cerep SA, France). Out of 26 compounds, more than 50% of the molecules presented >50% displacement, while 20% of the compounds (5, 6, 16, 19, 22) presented >80% displacement of radioligand binding at a 10 μM dose. Compounds 5, 6, 16, 19, and 22 were further tested for CB2 receptor activation (agonist activity, see below) and CB2/CB1 selectivity.
All membrane preparations for these studies were generated at Cerep Inc. according to standard protocols. Duplicate determinations were performed for each test compound. Compounds were dissolved in DMSO to generate a stock solution. Radioligand binding methods were adapted from Munro et al..

The values that follow come from publication PMC10341893, “Motifs in Natural Products as Useful Scaffolds to Obtain Novel Benzo[d]imidazole-Based Cannabinoid Type 2 (CB2) Receptor Agonists” (International Journal of Molecular Sciences, 2023).

hCB2 receptor, sequence (P34972 whole entry): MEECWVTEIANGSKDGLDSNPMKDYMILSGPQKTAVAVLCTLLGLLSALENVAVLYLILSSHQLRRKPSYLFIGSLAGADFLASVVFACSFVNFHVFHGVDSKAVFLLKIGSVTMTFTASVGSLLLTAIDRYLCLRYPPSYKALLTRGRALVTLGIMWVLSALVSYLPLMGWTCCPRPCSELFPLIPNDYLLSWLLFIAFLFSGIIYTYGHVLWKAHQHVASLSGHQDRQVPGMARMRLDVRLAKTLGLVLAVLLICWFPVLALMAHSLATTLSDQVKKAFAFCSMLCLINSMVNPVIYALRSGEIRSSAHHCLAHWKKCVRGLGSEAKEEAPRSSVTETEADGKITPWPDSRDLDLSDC

Broadly, the inhibition is the relative decrease from the control value, in per cent. As to `CC1CCC(C(C)C)C(Sc2nc3ccccc3n2Cc2cccc3ccccc23)C1` (stereo not shown) [Compound 1, 2-((2-isopropyl-5-methylcyclohexyl)thio)-1-(naphthalen-1-ylmethyl)-1H-benzo[d]imidazole], the inhibition at 10 µM is 2%.
Same read-out and setting: under `CC1CCC(C(C)C)C(Sc2nc3ccccc3n2Cc2ccccc2)C1` (stereo not shown) [Compound 2, 1-benzyl-2-((2-isopropyl-5-methylcyclohexyl)thio)-1H-benzo[d]imidazole] stands 72%.
The same measure, in the same setting: under `CCn1c(SC2CC(C)CCC2C(C)C)nc2ccccc21` (stereo not shown) [Compound 3, 1-ethyl-2-((2-isopropyl-5-methylcyclohexyl)thio)-1H-benzo[d]imidazole] stands 69%; under `CC1CCC(C(C)C)C(Oc2nc3ccccc3n2Cc2cccc3ccccc23)C1` (stereo not shown) [Compound 4, 2-((2-isopropyl-5-methylcyclohexyl)oxy)-1-(naphthalen-1-ylmethyl)-1H-benzo[d]imidazole], 37%.
Same read-out and setting: as for `CC(C)=CCC/C(C)=C/CSc1nc2ccccc2n1Cc1cccc2ccccc12` [Compound 7, (E)-2-((3,7-dimethylocta-2,6-dien-1-yl)thio)-1-(naphthalen-1-ylmethyl)-1H-benzo[d]imidazole], the figure is 42%.
Regarding `CC(C)=CCC/C(C)=C/CSc1nc2ccccc2n1Cc1ccccc1` [Compound 8, (E)-1-benzyl-2-((3,7-dimethylocta-2,6-dien-1-yl)thio)-1H-benzo[d]imidazole], the “Inhibition (%) of [3H]WIN55212-2 specific binding” value (“Inhibition (%)” below) worked out at 71%.
`CCn1c(SC/C=C(\C)CCC=C(C)C)nc2ccccc21` [Compound 9, (E)-2-((3,7-dimethylocta-2,6-dien-1-yl)thio)-1-ethyl-1H-benzo[d]imidazole]: the inhibition at 10 µM was 54%.
In the case of `CC(C)=CCC/C(C)=C/COc1nc2ccccc2n1Cc1cccc2ccccc12` [Compound 10, (E)-2-((3,7-dimethylocta-2,6-dien-1-yl)oxy)-1-(naphthalen-1-ylmethyl)-1H-benzo[d]imidazole], the “Inhibition (%)” value is reported as 40%.
In the case of `CC(C)=CCC/C(C)=C/COc1nc2ccccc2n1Cc1ccccc1` [Compound 11, (E)-1-benzyl-2-((3,7-dimethylocta-2,6-dien-1-yl)oxy)-1H-benzo[d]imidazole], the inhibition at 10 µM was 35%.
In the case of `CCn1c(OC/C=C(\C)CCC=C(C)C)nc2ccccc21` [Compound 12, (E)-2-((3,7-dimethylocta-2,6-dien-1-yl)oxy)-1-ethyl-1H-benzo[d]imidazole], the “Inhibition (%)” value is on record as −3%.
On to `c1ccc2c(Cn3c(SC45CC6CC(CC(C6)C4)C5)nc4ccccc43)cccc2c1` [Compound 13, 2-(adamantan-1-ylthio)-1-(naphthalen-1-ylmethyl)-1H-benzo[d]imidazole], for which the inhibition at 10 µM was found to be 30%.
For the molecule `c1ccc(Cn2c(SC34CC5CC(CC(C5)C3)C4)nc3ccccc32)cc1` [Compound 14, 2-(adamantan-1-ylthio)-1-benzyl-1H-benzo[d]imidazole], the “Inhibition (%)” value is listed as 69%.
On the same count and under the same terms, under `CCn1c(SC23CC4CC(CC(C4)C2)C3)nc2ccccc21` [Compound 15, 2-(adamantan-1-ylthio)-1-ethyl-1H-benzo[d]imidazole] stands 63%; under `CCn1c(OC23CC4CC(CC(C4)C2)C3)nc2ccccc21` [Compound 17, 2-(adamantan-1-yloxy)-1-ethyl-1H-benzo[d]imidazole], 61%; under `COc1ccc(CSc2nc3ccccc3n2Cc2cccc3ccccc23)cc1` [Compound 18, 2-((4-methoxybenzyl)thio)-1-(naphthalen-1-ylmethyl)-1H-benzo[d]imidazole], 46%.
Turning to `CCn1c(SCc2ccc(OC)cc2)nc2ccccc21` [Compound 20, 1-ethyl-2-((4-methoxybenzyl)thio)-1H-benzo[d]imidazole], the inhibition at 10 µM came out at 63%.
